≈ marks a conversion by molar mass, not a printed value. Calls of active or inactive are those of the source. The rule behind the calls is not given here.

The results in this text go back to ChEMBL document CHEMBL5032519, “Divergent synthesis and biological evaluation of 2-(trifluoromethyl)pyridines as virulence-attenuating inverse agonists targeting PqsR” (Eur J Med Chem, 2021).

The subject of the first series is Pseudomonas aeruginosa. Briefly: Antibiofilm activity against Pseudomonas aeruginosa assessed as reduction in CFU at 50 uM in presence of TOB. Format: functional, organism-based.
Conditions: not given
For the compound `CC(C)Oc1ccc(C#CCNc2ccnc(C(F)(F)F)c2)cc1F`, the outcome was Active.

For another series, the system named is Pseudomonas aeruginosa. The series is described as follows: Antibiofilm activity against Pseudomonas aeruginosa assessed as reduction in CFU at 50 uM. In kind it is functional, organism-based.
Conditions: not given
For the compound `CC(C)Oc1ccc(C#CCNc2ccnc(C(F)(F)F)c2)cc1F`, the outcome was Active.

The target in another series is T1, Transcriptional regulator MvfR (Pseudomonas aeruginosa PA14) (UniProt A0A072ZLE6).
T1 sequence (whole entry): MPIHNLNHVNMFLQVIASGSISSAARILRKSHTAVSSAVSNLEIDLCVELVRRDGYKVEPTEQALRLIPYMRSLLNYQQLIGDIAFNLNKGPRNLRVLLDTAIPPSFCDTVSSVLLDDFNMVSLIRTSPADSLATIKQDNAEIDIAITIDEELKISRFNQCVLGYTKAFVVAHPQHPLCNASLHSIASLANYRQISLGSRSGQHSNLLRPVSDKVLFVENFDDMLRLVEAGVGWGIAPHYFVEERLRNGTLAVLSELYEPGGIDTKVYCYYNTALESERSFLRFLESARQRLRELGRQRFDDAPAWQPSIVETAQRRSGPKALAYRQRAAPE
Briefly: Inverse agonist activity at PqsR in Pseudomonas aeruginosa assessed as reduction in pyocyanin production at 0.2 uM relative to control. Set-up: scale not given: the % may be the effect or the level left.
Conditions: not given
With `FC(F)(F)c1cc(NCCCc2ccc(Oc3ccccc3)cc2)ccn1`, the Activity was found to be 0%.
As for `COc1ccc(C#CCNc2ccnc(C(F)(F)F)c2)cc1C`, the Activity came to 5%.
For the compound `COc1ccc(C#CCNc2ccnc(C(F)(F)F)c2)cc1Cl`, the Activity is 4%.

System in a further series: not listed separately
Briefly: Cytotoxicity against HEK293 cells. Format: cell-based. The following applies: human, read-out: LD50 (the source's name).
As to `FC(F)(F)c1cc(SCC#Cc2ccc(Cl)cc2)ccn1`, the CC50 is greater than 100000 nM.
On the same count and under the same terms, the result for `FC(F)(F)c1cc(NCC#Cc2ccc(Oc3ccccc3)cc2)ccn1` reads 10000 nM; that for `Fc1ccc(C#CCNc2ccnc(C(F)(F)F)c2)cc1`, greater than 50000 nM; that for `Fc1ccc(CCCNc2ccnc(C(F)(F)F)c2)cc1`, 25000 nM.
Turning to `CCOc1ccc(C#CCNc2ccnc(C(F)(F)F)c2)cc1F`, the CC50 came out at 56900 nM.
In the case of `CC(C)Oc1ccc(C#CCNc2ccnc(C(F)(F)F)c2)cc1F`, the CC50 was 61900 nM.

A further series relates to Escherichia coli. Briefly: Inverse agonist activity at PqsR in Escherichia coli […] by measuring remaining activity at 1 uM by cell-based reporter gene assay relative to control.
Conditions: not given
A general note: In a reporter assay the amount or activity of a reporter protein is the signal.
As to `FC(F)(F)c1cc(NCC#Cc2ccc(Br)cc2)ccn1`, the Activity was 115%.
Regarding `COc1cccc(C#CCNc2ccnc(C(F)(F)F)c2)c1`, the Activity came out at 58%.
As for `FC(F)(F)c1cc(NC/C=C/c2ccc(Cl)nc2)ccn1`, the Activity came out at 81%.
Turning to `Oc1ccc(C#CCNc2ccnc(C(F)(F)F)c2)cc1`, the Activity worked out at 82%.
The same measure, in the same setting: under `FC(F)(F)c1cc(NCC#Cc2ccc(Cl)cn2)ccn1` stands 53%; under `FC(F)(F)c1cc(NCCCc2ccccc2)ccn1`, 52%; under `Fc1ccc(C#CCNc2ccnc(C(F)(F)F)c2)c(F)c1`, 70%.
Turning to `COc1cccc(CCCNc2ccnc(C(F)(F)F)c2)c1`, the Activity is 59%.

The series is the same for the next values; noted with them: filed as inverse agonist.
As for `FC(F)(F)c1cc(NCC#Cc2ccc(Cl)c(Cl)c2)ccn1`, the Activity was determined as 35%.
On to `FC(F)(F)c1cc(NCC#Cc2ccc(Cl)nc2)ccn1`, for which the Activity was 33%.
On the same count and under the same terms, under `FC(F)(F)c1cc(NC/C=C\c2ccc(Cl)nc2)ccn1` stands 45%; under `COc1ccc(C#CCNc2ccnc(C(F)(F)F)c2)cc1`, 8%.
Still for that read-out and setting: the result for `FC(F)(F)c1cc(NCCCc2ccc(Oc3ccccc3)cc2)ccn1` reads -41%; that for `COc1ccc(C#CCNc2ccnc(C(F)(F)F)c2)cc1Cl`, 29%.

System in the next series: not listed separately
The series is described as follows: Inverse agonist activity at PqsR in Escherichia coli […] by cell-based reporter gene assay.
Conditions: not given
Regarding `CCOc1ccc(C#CCNc2ccnc(C(F)(F)F)c2)cc1`, the IC50 (commonly the concentration at which inhibition is half-maximal) worked out at 170 nM.
In the case of `FC(F)(F)c1cc(NC/C=C/c2ccc(Cl)cc2)ccn1`, the IC50 came out at 479 nM.
Consider `FC(F)(F)c1cc(NCC#Cc2ccc(Cl)cc2)ccn1`, for which the IC50 was determined as 281 nM.
As for `CCOc1ccc(C#CCNc2ccnc(C(F)(F)F)c2)cc1Cl`, the IC50 amounted to 150 nM.
`FC(F)(F)c1cc(NCC#Cc2ccc(Oc3ccccc3)cc2)ccn1`: the IC50 worked out at 20 nM.
For `CC(C)Oc1ccc(C#CCNc2ccnc(C(F)(F)F)c2)cc1Cl`, the IC50 was 129 nM.
Take `Fc1ccc(C#CCNc2ccnc(C(F)(F)F)c2)cc1`: the IC50 worked out at 141 nM.
As to `Fc1ccc(CCCNc2ccnc(C(F)(F)F)c2)cc1`, the IC50 was found to be 251 nM.
For `Nc1cc(NCCCc2ccc(F)cc2)cc(C(F)(F)F)n1`, the half-maximal inhibitory concentration (IC50) came out at 140 nM.
The same measure, in the same setting: the result for `FC(F)(F)c1cc(NC/C=C/c2ccc(Oc3ccccc3)cc2)ccn1` reads 464 nM; that for `FC(F)(F)c1cc(NCCCc2ccc(Cl)cc2)ccn1`, 149 nM.
Consider `Fc1cccc(C#CCNc2ccnc(C(F)(F)F)c2)c1`, for which the IC50 came out at 222 nM.
Still for that read-out and setting: the result for `COc1ccc(C#CCNc2ccnc(C(F)(F)F)c2)cc1C` reads 289 nM; that for `CC(C)Oc1ccc(C#CCNc2ccnc(C(F)(F)F)c2)cc1F`, 80 nM.

The target of a further series is T2, Transcriptional regulator MvfR (Pseudomonas aeruginosa PA14, UniProt A0A072ZLE6).
T2 sequence (A0A072ZLE6 whole entry): T1 sequence (whole entry)
The series is described as follows: Inverse agonist activity at PqsR in Pseudomonas aeruginosa assessed as reduction in pyocyanin production.
Conditions: not given
As to `CCOc1ccc(C#CCNc2ccnc(C(F)(F)F)c2)cc1`, the IC50 was determined as 390 nM.
On the same count and under the same terms, under `FC(F)(F)c1cc(NCC#Cc2ccc(Cl)cc2)ccn1` stands 7970 nM; under `CCOc1ccc(C#CCNc2ccnc(C(F)(F)F)c2)cc1Cl`, 390 nM.
For `FC(F)(F)c1cc(NCC#Cc2ccc(Oc3ccccc3)cc2)ccn1`, the IC50 was found to be 490 nM.
Take `CC(C)Oc1ccc(C#CCNc2ccnc(C(F)(F)F)c2)cc1Cl`: the IC50 is 560 nM.
Turning to `Fc1ccc(C#CCNc2ccnc(C(F)(F)F)c2)cc1`, the IC50 stood at 3470 nM.
With `Fc1ccc(CCCNc2ccnc(C(F)(F)F)c2)cc1`, the IC50 turned out to be 3650 nM.
With `Nc1cc(NCCCc2ccc(F)cc2)cc(C(F)(F)F)n1`, the IC50 was 6900 nM.
The same measure, in the same setting: under `FC(F)(F)c1cc(NC/C=C/c2ccc(Oc3ccccc3)cc2)ccn1` stands 3830 nM; under `COc1ccc(C#CCNc2ccnc(C(F)(F)F)c2)cc1F`, 3170 nM; under `FC(F)(F)c1cc(NCCCc2ccc(Cl)cc2)ccn1`, 1050 nM.
Take `CCOc1ccc(C#CCNc2ccnc(C(F)(F)F)c2)cc1F`: the IC50 was found to be 250 nM.
As for `CC(C)Oc1ccc(C#CCNc2ccnc(C(F)(F)F)c2)cc1`, the IC50 stood at 650 nM.
For the compound `CC(C)Oc1ccc(C#CCNc2ccnc(C(F)(F)F)c2)cc1F`, the IC50 stood at 440 nM.

A further series deals with T1, Transcriptional regulator MvfR (Pseudomonas aeruginosa PA14). Briefly: Inverse agonist activity at PqsR in Pseudomonas aeruginosa assessed as reduction in pyocyanin production at 10 uM relative to control. Set-up: scale not given: the % may be the effect or the level left. The following applies: filed as inverse agonist.
As for `FC(F)(F)c1cc(NC/C=C/c2ccc(Cl)cc2)ccn1`, the Activity was determined as 93%.

For another series, the system named is Pseudomonas aeruginosa. The series is described as follows: Antibiofilm activity against Pseudomonas aeruginosa assessed as reduction in CFU at 0.5 ug/ml. Format: functional, organism-based. The following applies: dose 0.5 µg/ml.
`NC[C@H]1O[C@H](O[C@H]2[C@H](O)[C@@H](O[C@H]3O[C@H](CO)[C@@H](O)[C@H](N)[C@H]3O)[C@H](N)C[C@@H]2N)[C@H](N)C[C@@H]1O`: the result was inactive.

System in the next series: not listed separately
Briefly: Kinetic solubility of compound. Format: physicochemical. The following applies: read-out: Kinetic_solubility.
`FC(F)(F)c1cc(SCC#Cc2ccc(Cl)cc2)ccn1`: the solubility kinetic was 42.4 µM (≈ 13.9 µg/mL).
Regarding `FC(F)(F)c1cc(NCC#Cc2ccc(Oc3ccccc3)cc2)ccn1`, the solubility kinetic is 13.2 µM (≈ 4.86 µg/mL).
The same measure, in the same setting: the result for `Fc1ccc(C#CCNc2ccnc(C(F)(F)F)c2)cc1` reads greater than 200 µM.
As for `Fc1ccc(CCCNc2ccnc(C(F)(F)F)c2)cc1`, the solubility kinetic is 93.9 µM (≈ 28 µg/mL).
Turning to `CCOc1ccc(C#CCNc2ccnc(C(F)(F)F)c2)cc1F`, the solubility kinetic was 60.4 µM (≈ 20.4 µg/mL).
Same read-out and setting: the result for `CC(C)Oc1ccc(C#CCNc2ccnc(C(F)(F)F)c2)cc1F` reads 58.8 µM (≈ 20.7 µg/mL).

System in a further series: not listed separately
Briefly: Half life in human S9 fraction. In kind it is ADME, subcellular.
Conditions: not given
In the case of `FC(F)(F)c1cc(SCC#Cc2ccc(Cl)cc2)ccn1`, the half-life (in general, how long it takes for the measured level to halve) came out at 43.9 min.
For `FC(F)(F)c1cc(NCc2cn(-c3ccc(Oc4ccccc4)cc3)nn2)ccn1`, the half-life was determined as 169 min.
`FC(F)(F)c1cc(NCC#Cc2ccc(Oc3ccccc3)cc2)ccn1` yielded a half-life of 53 min.
As to `Fc1ccc(C#CCNc2ccnc(C(F)(F)F)c2)cc1`, the half-life was 61.2 min.
As for `Fc1ccc(CCCNc2ccnc(C(F)(F)F)c2)cc1`, the half-life came out at 32.7 min.
Take `Nc1cc(NCCCc2ccc(F)cc2)cc(C(F)(F)F)n1`: the half-life was 56 min.
In the case of `CCOc1ccc(C#CCNc2ccnc(C(F)(F)F)c2)cc1F`, the half-life amounted to 13 min.
For the compound `CC(C)Oc1ccc(C#CCNc2ccnc(C(F)(F)F)c2)cc1F`, the half-life came out at 25.3 min.

System in the next series: not listed separately
Briefly: Cytotoxicity against human HepG2 cells. Format: cell-based. The following applies: read-out: LD50 (the source's name).
`FC(F)(F)c1cc(SCC#Cc2ccc(Cl)cc2)ccn1`: the CC50 is greater than 100000 nM.
Turning to `FC(F)(F)c1cc(NCC#Cc2ccc(Oc3ccccc3)cc2)ccn1`, the CC50 was greater than 25000 nM.
The same measure, in the same setting: the result for `Fc1ccc(C#CCNc2ccnc(C(F)(F)F)c2)cc1` reads greater than 50000 nM; that for `CC(C)Oc1ccc(C#CCNc2ccnc(C(F)(F)F)c2)cc1F`, 69800 nM.
